Drawing on PubChem BioAssay (NCI), this text covers GI50 and TGI for 15 molecules.

Values joined by “and” are separate entries in the source; they are usually repeats but may differ in a detail not shown here. Equal entries are not always repeated.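 Exposure lasted 48 hours, with cells grown in 96-well plates and compounds tested at five concentrations. Abbreviation: GI50, concentration required for 50% inhibition of growth. TGI: total growth inhibition.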

Some test systems named below: HCC-2998 colon; IGROV1 ovarian; MDA-MB-435; CAKI-1 renal; U251 CNS; SNB-19 CNS; SF-539 CNS; SK-MEL-5 melanoma; SNB-75 CNS; NCI-H226 lung.
What all share (experiment): growth of human tumour cells (NCI), 48 h

Take `COc1ccc(-c2ccc(/C=N/n3c(COc4ccccc4Cl)nn(CN4CCOCC4)c3=S)o2)c([N+](=O)[O-])c1`: the GI50 with HCC-2998 colon is 24.1 µM; with IGROV1 ovarian, 59.5 µM; in the test with MDA-MB-435, 17.1 µM; with CAKI-1 renal, 21.3 µM; in the test with U251 CNS it was 26.1 µM; with SNB-19 CNS, 36.2 µM. Also, the GI50 with SF-539 CNS was 28.6 µM. The TGI in the test on HCC-2998 colon is 56.8 µM; in the test with IGROV1 ovarian it was greater than 100 µM; with MDA-MB-435, 42.3 µM; with CAKI-1 renal it was 56.3 µM; in the test with U251 CNS, greater than 100 µM; in the test with SNB-19 CNS, greater than 100 µM. The TGI in the test with SF-539 CNS stood at 60.8 µM.
Take `O=C(O)/C(Cc1cn[nH]n1)=N\O`: the TGI in the test with IGROV1 ovarian, with SK-MEL-5 melanoma, in the test on SNB-75 CNS, in the test with MDA-MB-435, in the test on CAKI-1 renal and in the test with U251 CNS was greater than 100 µM in each case. Moreover, the TGI in the test on SNB-19 CNS, in the test on NCI-H226 lung and in the test on SF-539 CNS was greater than 100 µM throughout.
Turning to `C=C1C(O)C2CC(C)(CO)C(=O)C2=C(CC(C)C)C12CC2` (configuration not stated), the GI50 with HCC-2998 colon was greater than 100 µM; with IGROV1 ovarian it was greater than 100 µM; in the test with SK-MEL-5 melanoma, 82.8 µM; with MDA-MB-435, 75 µM; in the test on CAKI-1 renal, 69.6 µM; in the test with U251 CNS it was 77 µM. Besides, the figures for the GI50 in the test with SNB-19 CNS, in the test with NCI-H226 lung and with SF-539 CNS were greater than 100 µM, greater than 100 µM and 51.6 µM, respectively. The TGI in the test with HCC-2998 colon, in the test with IGROV1 ovarian, with SK-MEL-5 melanoma, with MDA-MB-435, with CAKI-1 renal and in the test with U251 CNS was greater than 100 µM throughout. The TGI in the test on SNB-19 CNS, with NCI-H226 lung and in the test with SF-539 CNS was greater than 100 µM in each case.
In the case of `O=[N+]([O-])c1ccc(Cl)c(CNc2ncnc3c2ncn3C2CCCCO2)c1` (configuration not stated), the TGI is greater than 100 µM with IGROV1 ovarian; 52.3 µM in the test on SK-MEL-5 melanoma; greater than 100 µM in the test with SNB-75 CNS; 30.3 µM with MDA-MB-435; greater than 100 µM in the test on CAKI-1 renal; greater than 100 µM in the test on U251 CNS. Moreover, the TGI was greater than 100 µM in the test with SNB-19 CNS, 86.6 µM with NCI-H226 lung and 66.1 µM in the test with SF-539 CNS.
`Nc1nc2c(C(=O)NCc3cccs3)nnn2c2cccc(Cl)c12`: the TGI in the test with HCC-2998 colon, in the test with IGROV1 ovarian, with SK-MEL-5 melanoma, with MDA-MB-435, in the test on CAKI-1 renal and with U251 CNS was greater than 100 µM each time. The TGI in the test with SNB-19 CNS, in the test on NCI-H226 lung and with SF-539 CNS was greater than 100 µM throughout.
Turning to `COc1ccccc1S(=O)(=O)Nc1ccc2c3c(cc(CCC(=O)NCCCCNc4cccc5c4C(=O)N(C4CCC(=O)NC4=O)C5=O)cc13)C(=O)N2C` (configuration not stated), the GI50 was 0.14 µM in the test with IGROV1 ovarian; 0.982 µM in the test with SK-MEL-5 melanoma; 0.0718 µM in the test with SNB-75 CNS; 0.726 µM in the test on MDA-MB-435; 2.31 µM in the test on CAKI-1 renal; greater than 63.4 µM in the test with U251 CNS. Besides, the results for the GI50 in the test with SNB-19 CNS, with NCI-H226 lung and with SF-539 CNS were 0.427 µM, 0.456 µM and 0.978 µM, respectively. Also, the TGI in the test on IGROV1 ovarian is greater than 100 µM; with SK-MEL-5 melanoma, 3.32 µM; in the test with SNB-75 CNS it was 0.828 µM; with MDA-MB-435, greater than 100 µM; in the test with CAKI-1 renal, greater than 100 µM; in the test with U251 CNS, greater than 100 µM. The results for the TGI in the test with SNB-19 CNS, with NCI-H226 lung and with SF-539 CNS were greater than 100 µM, 4.79 µM and greater than 100 µM, respectively.
With `CN=C1C=CC(=C(c2ccc(N(C)C)cc2)c2ccc(N(C)C)cc2)C=C1`, the GI50 was 0.309 µM with HCC-2998 colon; 0.42 µM in the test on IGROV1 ovarian; 0.182 µM with SK-MEL-5 melanoma; 0.295 µM in the test on SNB-75 CNS; 0.251 µM in the test with MDA-MB-435; 0.448 µM in the test with CAKI-1 renal. Besides, the GI50 in the test with U251 CNS is 0.0582 µM; in the test with SNB-19 CNS, 0.324 µM; in the test with SF-539 CNS it was 0.319 µM. For the same molecule, the TGI in the test with HCC-2998 colon amounted to 1.27 µM; in the test on IGROV1 ovarian it was 6.38 µM; with SK-MEL-5 melanoma, 0.364 µM; in the test on SNB-75 CNS, 1.04 µM; in the test on MDA-MB-435, 0.66 µM; in the test on CAKI-1 renal, 2.53 µM. For the same molecule, the figures for the TGI in the test on U251 CNS, in the test with SNB-19 CNS and in the test with SF-539 CNS were 0.682 µM, 1.94 µM and 1.84 µM, respectively.
Turning to `CCOC(=O)C(Cc1ccc(N(CCCl)CCCl)cc1)NC(=O)C(Cc1ccccc1)NC=O` (configuration not stated), the TGI is 0.222 µM with IGROV1 ovarian; 0.355 µM in the test on SK-MEL-5 melanoma; 0.338 µM with MDA-MB-435; 0.264 µM with CAKI-1 renal; 0.499 µM in the test with U251 CNS; 0.624 µM in the test on SNB-19 CNS. Further, the TGI in the test on SF-539 CNS was determined as 0.316 µM.
As for `Cc1cc(N(CCOS(C)(=O)=O)CCOS(C)(=O)=O)ccc1C(=O)O`, the GI50 in the test on HCC-2998 colon was greater than 100 µM; in the test with SK-MEL-5 melanoma, greater than 100 µM; with MDA-MB-435, greater than 100 µM; in the test on CAKI-1 renal, 43.7 µM; in the test on U251 CNS it was greater than 100 µM; with SNB-19 CNS, greater than 100 µM. For the same molecule, in the test with NCI-H226 lung, the GI50 was greater than 100 µM. For the same molecule, the TGI in the test on HCC-2998 colon, with SK-MEL-5 melanoma, in the test with MDA-MB-435, in the test on CAKI-1 renal, in the test on U251 CNS and in the test with SNB-19 CNS was greater than 100 µM each time. The same molecule showed a TGI in the test on NCI-H226 lung greater than 100 µM.
Take `Cc1cc(-c2c(F)cc3c4nn([C@H]5CC[C@@H](N(C)C)CC5)c(=O)c-4cn(C4CC4)c3c2F)cc(C)n1`: the GI50 with HCC-2998 colon was 0.0369 µM; in the test with IGROV1 ovarian, 0.278 µM; in the test with SNB-75 CNS, 0.158 µM; with CAKI-1 renal, 0.185 µM; with NCI-H226 lung, 0.0368 µM; in the test on SF-539 CNS, 0.0561 µM. In addition, the TGI was 0.108 µM and 1.01 µM in the test on HCC-2998 colon; 0.982 µM in the test on SK-MEL-5 melanoma; 0.19 µM and 0.54 µM in the test with SNB-75 CNS; 0.346 µM and 1.11 µM in the test with CAKI-1 renal; 0.814 µM in the test with U251 CNS; greater than 100 µM in the test with SNB-19 CNS. For the same molecule, the TGI with NCI-H226 lung was 0.118 µM and 0.586 µM; in the test with SF-539 CNS, 0.174 µM and 0.62 µM.
Consider `c1ccc(OCCC[P+](c2ccccc2)(c2ccccc2)c2ccccc2)cc1`, for which the GI50 in the test with IGROV1 ovarian is 1.42 µM; in the test on SK-MEL-5 melanoma, 0.438 µM; in the test on SNB-75 CNS, 1.27 µM; in the test on MDA-MB-435 it was 0.481 µM; in the test on CAKI-1 renal, 10.1 µM; with U251 CNS, 1.63 µM. Besides, the GI50 is 2.27 µM in the test with SNB-19 CNS, 2.3 µM in the test with NCI-H226 lung and 3.07 µM with SF-539 CNS. Also, the TGI in the test on IGROV1 ovarian came to 17.4 µM; in the test on SK-MEL-5 melanoma, 1.74 µM; in the test on SNB-75 CNS, 6.7 µM; in the test on MDA-MB-435, 10.3 µM; in the test on CAKI-1 renal it was 27.9 µM; in the test on U251 CNS, 14 µM. Besides, the TGI with SNB-19 CNS is 17.8 µM; with NCI-H226 lung, 30.5 µM; in the test on SF-539 CNS, 18.3 µM.
With `[N-]=[N+]=NCCCn1c2c(c3ccc([N+](=O)[O-])cc3c1=O)C(=O)c1cc(Br)ccc1-2`, the GI50 in the test with HCC-2998 colon was greater than 100 µM; with IGROV1 ovarian, greater than 100 µM; with SK-MEL-5 melanoma, greater than 100 µM; in the test with MDA-MB-435, greater than 100 µM; in the test on CAKI-1 renal it was 0.887 µM; with U251 CNS, 45.8 µM. In addition, the GI50 in the test with SNB-19 CNS, in the test on NCI-H226 lung and in the test with SF-539 CNS was greater than 100 µM in each case. The TGI in the test with HCC-2998 colon, in the test with IGROV1 ovarian, in the test with SK-MEL-5 melanoma, with MDA-MB-435, in the test on CAKI-1 renal and in the test on U251 CNS was greater than 100 µM throughout. The TGI in the test on SNB-19 CNS, in the test with NCI-H226 lung and with SF-539 CNS was greater than 100 µM in each case.
Take `O=C(NNc1ccc(Cl)cc1)C1CCC(CNS(=O)(=O)c2ccccc2Cl)CC1` (configuration not stated): the GI50 in the test with HCC-2998 colon is 1.48 µM; with IGROV1 ovarian, 42.5 µM; in the test on SK-MEL-5 melanoma, 18.4 µM; in the test on MDA-MB-435, 4.77 µM; with CAKI-1 renal, 2.9 µM; in the test on NCI-H226 lung, 20.2 µM. Further, the GI50 in the test with SF-539 CNS was 17.4 µM. Further, the TGI in the test on HCC-2998 colon was 13.8 µM; in the test on IGROV1 ovarian, greater than 100 µM; in the test on SK-MEL-5 melanoma, 39.2 µM; in the test on MDA-MB-435, 24.1 µM; in the test on CAKI-1 renal, 12.6 µM; with NCI-H226 lung it was greater than 100 µM. This molecule also displayed a TGI in the test on SF-539 CNS of 45.1 µM.
For `COc1ccc(-c2cncn2-c2cc(OC)c(OC)c(OC)c2)cc1`, the GI50 in the test with HCC-2998 colon is 0.0779 µM; in the test with IGROV1 ovarian, less than 0.0157 µM; with SK-MEL-5 melanoma, 0.0523 µM; with MDA-MB-435, 0.0178 µM; with CAKI-1 renal, 0.051 µM; with U251 CNS it was 0.412 µM. The GI50 in the test with SNB-19 CNS is 0.349 µM; with NCI-H226 lung, 1.97 µM; in the test on SF-539 CNS, 0.0671 µM. Besides, the TGI in the test on HCC-2998 colon was 1.37 µM; in the test on IGROV1 ovarian it was 1.53 µM; in the test with SK-MEL-5 melanoma, 5.25 µM; in the test on MDA-MB-435 it was 0.0567 µM; in the test on CAKI-1 renal it was 1.85 µM; with U251 CNS, greater than 46.4 µM. For the same molecule, the TGI in the test on SNB-19 CNS is greater than 100 µM; in the test with NCI-H226 lung it was 82.6 µM; in the test on SF-539 CNS it was 0.46 µM.
Turning to `COC1=CC(C2c3cc4c(cc3[C@@H](Nc3ccc(F)cc3)C3COC(=O)[C@H]23)OCO4)=CC(=O)C1=O` (some centres not stated), the TGI in the test with HCC-2998 colon is 39.6 µM; with IGROV1 ovarian, 44 µM; in the test with SK-MEL-5 melanoma, greater than 43.5 µM; with SNB-75 CNS it was greater than 45.1 µM; in the test on CAKI-1 renal it was 31.9 µM; in the test with U251 CNS, 13.7 µM. For the same molecule, the TGI in the test on SNB-19 CNS is greater than 66.5 µM; in the test with NCI-H226 lung, 39.3 µM; in the test on SF-539 CNS, 20.3 µM.
